# Data: patent publication US5457106A, “Pyridine derivatives, their production and use” (Takeda Chemical Industries, Ltd., priority 1991, dated 1995)
# Structures can show the parent of a compound that is named as a salt.
# Columns and labels:
# [1] = test system: Rat carrageenin pedal edema; experiment: Rat carrageenin pedal edema inhibitory activity; type: in vivo, rat (Jcl: SD); details: Rattus norvegicus, po, 3 h, orally, 3 hours after carrageenin, read-out: Inhibitory percentage (carrageenin pedal edema)
# Summary of the method: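 Male Jcl:SD rats (6 weeks, 160-220 g) received test compound orally as a 5% gum arabic suspension, topped up with water to 5 ml/rat. One hour later 0.05 ml of 1% carrageenin was injected subcutaneously into the right hind foot pad. Edema volume was the foot volume increase 3 hours post-injection.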
# [2] = test system: Mouse acetic acid writhing; experiment: Mouse acetic acid writhing inhibitory activity; type: in vivo, mouse (Slc: ICR); details: Mus musculus, po, 20 min, orally, read-out: Inhibitory percentage (acetic acid writhing)
# Experimental: Mouse Acetic Acid Writhing Inhibitory Activity
# Ten male Slc: ICR mice, 4 weeks old, per 1 group were used. A test compound was administered orally, and after 30 minutes, 0.1 ml/10 g body weight of physiological saline containing 0.6% acetic acid was injected intraperitoneally. For 20 minutes, writhing (in agony condition) response by administration of acetic acid was counted regarding individual animals. The inhibitory percentage relative to the mean response counts of a control group was calculated regarding respective animals in a test compound administration group. The test compound was suspended in 5% gum arabic solution, and the administration volume was 0.2 ml/10 g.
# [3] = test system: brewer's yeast inflamed rat hind limb foot pad pain threshold; experiment: Pain relief test by Randall Celit method; type: in vivo; details: orally
# Experimental: Pain Relief Test By Randall Celit Method
# Seven to eight male Jcl: […] rats, 5 weeks old, per one group were used. 0.1 ml of 10% brewer's yeast physiological saline suspension was injected subcutaneously in the rat dexter hind limb foot pad to induce inflammation. After three hours, the pain threshold was measured by pressure stimulating pain relief measuring apparatus manufactured by Ugo Basile Company (Cat. No. 7200) using an index of […] pain reflex in the inflammatory limb (dexter hind limb), and this was taken as response threshold value in the inflammatory limb. A test compound was administered after additional 45 minutes orally, and the threshold was measured after one and two hours. The efficacy was determined by comparing threshold of a control group and that of the test compound group. The test compound was suspended in 5% gum arabic solution and the administration volume was 0.5 ml/100 g.
# [4] = test system: brewer's yeast induced pyrexia; experiment: Antipyretic activity (brewer's yeast induced pyrexia); type: in vivo, rat (DS line); details: orally; for Antipyretic activity, .increment. °C.: at peak time
# Summary of the method: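 Male DS rats (7 weeks, 200-240 g) made febrile by s.c. 15% brewer's yeast 18 h before dosing; only animals at ≥38.5° C used. Compound given orally versus solvent control, with rectal temperature taken by thermistor hourly for 5 h post-dose.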
# cyclooxygenase = molecular target: T1, cyclooxygenase (Rattus norvegicus, UniProt Q63921); experiment: Cyclooxygenase inhibitory activity (HHT formation from arachidonic acid in rat platelet-rich plasma); type: cell-based, rat (Jcl:wistar)
# T1 construct: from tissue; host or cells: platelets in platelet-rich plasma from rat abdominal aorta blood (Jcl:wistar, male)
# T1 sequence (Q63921 27-602): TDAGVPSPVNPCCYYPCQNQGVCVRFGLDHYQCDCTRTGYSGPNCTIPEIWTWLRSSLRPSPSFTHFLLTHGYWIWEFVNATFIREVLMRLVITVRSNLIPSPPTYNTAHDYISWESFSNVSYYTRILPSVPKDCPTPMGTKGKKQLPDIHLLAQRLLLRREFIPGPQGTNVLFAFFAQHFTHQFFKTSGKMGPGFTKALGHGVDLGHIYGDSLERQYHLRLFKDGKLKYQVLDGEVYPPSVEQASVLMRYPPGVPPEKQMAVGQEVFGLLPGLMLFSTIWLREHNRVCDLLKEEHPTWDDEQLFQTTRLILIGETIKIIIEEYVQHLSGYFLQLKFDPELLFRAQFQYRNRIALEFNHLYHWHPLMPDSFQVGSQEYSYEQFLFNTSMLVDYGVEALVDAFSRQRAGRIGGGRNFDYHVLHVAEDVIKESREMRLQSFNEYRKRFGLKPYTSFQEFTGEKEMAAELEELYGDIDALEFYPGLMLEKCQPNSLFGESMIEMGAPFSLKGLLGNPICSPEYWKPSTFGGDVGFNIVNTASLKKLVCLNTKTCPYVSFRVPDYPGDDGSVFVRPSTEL
# [5] = test system: ART (antigen-responding T-cell); experiment: In vitro ART (antigen-responding T-cell) proliferation test; type: cell-based, Lewis rat; details: Rattus norvegicus, T-cell, read-out: % Inhibition of ART growth
# [6] = test system: Mouse phenylquinone writhing; experiment: Mouse phenylquinone writhing inhibitory activity; type: in vivo, mouse (Slc: ICR); details: Mus musculus, po, 20 min, 50 mg/kg, orally; read-out: Inhibitory percentage (phenylquinone writhing)
# Summary of the method: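 Male ICR mice (4 weeks, 17–24 g) dosed orally with compound suspended in 5% gum arabic. After 30 min, 0.02% phenylquinone (0.1 ml/10 g) given i.p.; writhing and stretching responses counted over 20 min.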
# [7] = test system: Rat reversed passive Arthus reaction (skin); experiment: Rat reversed passive Arthus reaction (skin) inhibitory activity; type: in vivo, rat (Jcl: SD); details: po, orally, read-out: Inhibitory percentage (reversed passive Arthus reaction)
# Experimental: Rat Reversed Passive Arthus Reaction (skin) Inhibitory Activity This reaction was-induced by using domestic rabbit anti-egg albumin (EA) antiserum according to the method of Chang and Otterness [Chang, Y. -H. and Otterness, I. G.: Eur. J. Pharmacol. 69, 155 (1981)]. Using six Jcl: SD male rats (7 weeks old, weight about 250 g) per one group, the hair was removed from the back under ether anesthesia, 1 ml of 0.5% EA physiological saline was injected […] into the tail vein, and further each 0.1 ml of diluted antiserum (6 mg protein antibody/ml) was injected in the back on both dexter and sinister sides. […] Acceleration of permeability through the vessel by the reaction was measured by injecting 1 ml of 1% Evans blue physiological saline intravenously at three hours after the induction of the reaction. Then, after 30 minutes, the rat was sacrificed by exsanguination. The skin was peeled off and the area of pigment spot (length×breadth, mm^2) was measured.
# [8] = test system: PAF induced respiratory tract constriction; experiment: PAF induced respiratory tract constriction inhibitory activity; type: in vivo, guinea pig (Hartley); details: intravenously
# Excerpt: PAF Induced Respiratory Tract Constriction Inhibitory Activity Male and female Hartley guinea pigs, weighing about 100 g, were used. The guinea pigs were fixed at a dorsal position under urethane anethesia (1.5 g/kg, i.p.). One leg of a cannula (having four legs) was inserted in the trachea and two of the other three legs were bound to the respirator (Harvard apparatus rodent respirator). The remaining one leg (side branch) was bound to the bronchospasm transducer 7.020 (Ugobasile). Under the conditions of 5 to 7 ml of air supply/time, 70 times/min. of supply time and 10 cm H2 O of pulmonary pressure load, the amount of over flow air was recorded on a Rectigraph (Rectigraph-8S, Saneissoki) via the transducer. After Gallamine […] treatment (1 mg/kg, i.v.), PAF was administered intravenously (1.0 μg/kg) and the maximum respiratory tract constriction response was observed after 30 seconds. Under these conditions, the inhibitory activity of the test compounds were examined.
# ICAM-1 = experiment: Adhesion protein expression inhibitory activity, ICAM-1; type: cell-based; details: 30 μM, human umbilical vascular endothelial cells, TNF-α; 360 min
# Experimental: Adhesion Protein Expression Inhibitory Activity The various concentrations of test compounds were added to the human umbilical cord-derived vascular endothelial cells [sold by Klabo] which were seeded in the gelatin coat plate and the mixture was incubated at 37° C. for 15 minutes. Then, the human tumor necrosis factor-α[TNF-α; sold by Genzyme] was added therein to the final concentration of 1 ng/ml and incubation was carried out at 37° C. for 3 hours for expression of ELAM-1 and for 6 hours for that of ICAM-I. After the reaction, the cells were fixed using glutaraldhyde and the expression amount of ELAM-1 and ICAM-1 was measured by the cell-ELISA method. That is, the expression was determined by […] the adhesion proteins on the cells in the system using anti-ELAM-1 antibody BBA-2 and anti-ICAM-1 antibody BBA4 as the first antibody as well as horseradish peroxidase-labeled rabbit anti-mouse IgG antibody as the second antibody.
IC50 (cyclooxygenase),Compound,inhibition in vivo at 50 mg/kg [1],"Antipyretic activity, peak time ([4]; 50 mg/kg)","Antipyretic activity, .increment. °C. ([4]; 50 mg/kg)",inhibition at 1 µM [5],inhibition at 10 µM [5],inhibition in vivo at 50 mg/kg [6],inhibition in vivo at 50 mg/kg [7],other results
,"O=C1CSC(=O)N1CSc1ccncc1 [Example 169, 4-(2,4-thiazolidinedionemethylthio)pyridine]",44%,2 h,-2.43 °C,,,,,"inhibition in vivo at 50 mg/kg [2]: 96%; % Of Control (pain threshold) ([3]; 50 mg/kg, 1 hour): 215.2 ± 16.1 % Of Control; % Of Control (pain threshold) ([3]; 50 mg/kg, 2 hours): 158.4 ± 26.2 % Of Control; % Of Control (pain threshold) ([3]; 200 mg/kg, 1 hour): 242 ± 21.9 % Of Control; % Of Control (pain threshold) ([3]; 200 mg/kg, 2 hours): 326.1 ± 80.1 % Of Control; Antipyretic activity, peak time ([4]; 12.5 mg/kg): 2 h; Antipyretic activity, .increment. °C. ([4]; 12.5 mg/kg): -2.13 °C"
8.6 µM,"O=C(NCCCSc1ccncc1)c1ccco1 [Example 53, 4-[3-(2-furoylamino)propylthio]pyridine]",,,,,,,21%,
,"Cl.Cl.O=c1c2ccccc2n(CSc2ccncc2)c(=O)n1CCCCSc1ccncc1 [Example 199, 1-(4-pyridylthio)methyl-3-[4-(4-pyridylthio)butyl]quinazoline-2,4(1H,3H)-dione dihydrochloride]",,,,,,,,Inhibitory activity (PAF induced respiratory tract constriction) ([8]; 3 mg/kg): 53.5%
,"O=c1c2ccccc2oc(=S)n1CCCCSc1ccncc1 [Example 162, 3-[4-(4-pyridylthio)butyl]-2H-1,3-benzoxadine-2-thion-4(3H)-on]",34%,,,-31%,-54%,,,Inhibitory activity (PAF induced respiratory tract constriction) ([8]; 3 mg/kg): 39.8%
,"CCC(=O)N(CCCCSc1ccncc1)c1ccccc1N(CCCCSc1ccncc1)C(=O)CC.Cl.Cl [Example 203, 1,2-bis[N-[4-(4-pyridylthio)butyl]-N-propionylamino]benzene dihydrochloride]",,,,,,,,Inhibitory activity (PAF induced respiratory tract constriction) ([8]; 0.3 mg/kg): 90.4%
,"CC1(C)OC(=O)N(CSc2ccncc2)C1=O [Example 173, 4-(5,5-dimethyloxazolidine-2,4-dione)methylthiopyridine]",23%,2 h,-2.02 °C,,,,,"inhibition in vivo at 50 mg/kg [2]: 75%; % Of Control (pain threshold) ([3]; 200 mg/kg, 1 hour): 222.7 ± 26.4 % Of Control; % Of Control (pain threshold) ([3]; 200 mg/kg, 2 hours): 165.8 ± 24.9 % Of Control; Expression Inhibitory Potency, ICAM-1 (ICAM-1): 35%"
,"CC(C)(C)C(=O)NCCCSc1ccncc1.Cl [Example 24, 4-[3-(pivaloylamino)propylthio]pyridine hydrochloride]",,2 h,-1.33 °C,29%,35%,56%,46%,
6.5 µM,"CC(C)(C)c1ccc(C(=O)NCCCSc2ccncc2)cc1 [Example 32, 4-[3-(4-t-butylbenzoylamino)propylthio]pyridine hydrochloride]",,1 h,-1.39 °C,43%,37%,63%,41%,
3.4 µM,"O=C(NCCCSc1ccncc1)C(F)(F)F [Example 25, 4-[3-(trifluoroacetylamino)propylthio]pyridine hydrochloride]",,,,44%,-7%,60%,24%,
,"O=C1c2ccccc2C(=O)N1CSc1ccncc1 [Example 62, 4-(phthalimidomethylthio)pyridine]",36%,4 h,-1.40 °C,,,55%,27%,inhibition in vivo at 12.5 mg/kg ([1]; 12.5 mg/kg): 20%
,"O=C(C=Cc1cccs1)NCCCSc1ccncc1 [Example 56, 4-[3-(2-thiopheneacrylamino)propylthio]pyridine]",,,,,,,32%,
11.3 µM,"O=C(NCCCSc1ccncc1)c1cccnc1 [Example 41, 4-[3-(nicotinoylamino)propylthio]pyridine]",,,,,,73%,35%,

Compound,IC50 (cyclooxygenase),inhibition in vivo at 50 mg/kg [1],"Antipyretic activity, peak time ([4]; 50 mg/kg)","Antipyretic activity, .increment. °C. ([4]; 50 mg/kg)",inhibition at 1 µM [5],inhibition at 10 µM [5],inhibition in vivo at 50 mg/kg [6],inhibition in vivo at 50 mg/kg [7],other results
"CCCCOc1ccc(C(=O)NCCCSc2ccncc2)cc1 [Example 35, 4-[3-(4-n-butoxybenzoylamino)propylthio]pyridine hydrochloride]",2.3 µM,,,,18%,33%,60%,30%,
